In patent US20240139172A1, “PIPERIDINE UREA DERIVATIVES FOR CANCER THERAPY” (NeuroPn Therapeutics, Inc., priority 2022, published 2024):

Tested on: adult zebrafish
Experiment: Paclitaxel-induced peripheral neuropathy in adult zebrafish (number of stimuli until twitch)
Type: in vivo
Conditions: 3 μL of 10-μM paclitaxel solution for four consecutive days, FIG. 9
Method: Method to evaluate potential of compounds of Formula 1 to reduce or block chemotherapy-induced peripheral neuropathy—Animal (zebrafish) model described below and in literature (Lisse T S et al PNAS 113 (15) E2189-E2198) was used to evaluate potential of compounds of Formula 1 to reduce or block neuronal damage induced by chemotherapeutics.
To induce peripheral neuropathy in adult zebrafish, 3 μL of a 10-μM paclitaxel solution in 0.15% DMSO was administered with a 33 gauge Hamilton Syringe for a zebrafish with average ˜200 mg body weight. Fish were treated with vehicle alone or paclitaxel for four consecutive days (Days 2-5) or paclitaxel with Compound A (10- or 30 ng). Compound A was dosed orally by mixing with the fish feed pellets. Fishes were conditioned to consume three pellets a day. […] To prepare test compound infused pellet, a known quantity of the compound was mixed with the known quantity of the feed powder and were extruded in to 4 mg pellet containing the desired administration dose per pellet. Concentration of test compound dosed per fish were controlled by the number of pellets and the quantity of compound per pellet. […]
To determine the peripheral nerve damage, fish were wrapped in plastic foil until calm, and the distal tail fin was stimulated with an insect pin until twitching of the fish was observed. Number of stimuli until twitch was recorded.

With CC(=O)O[C@H]1C(=O)[C@@]2(C)[C@H]([C@H](OC(=O)c3ccccc3)[C@]3(O)C[C@H](OC(=O)[C@H](O)[C@@H](NC(=O)c4ccccc4)c4ccccc4)C(C)=C1C3(C)C)[C@]1(OC(C)=O)CO[C@@H]1C[C@@H]2O [paclitaxel] the “peripheral nerve damage (increase in number of stimuli needed) compared to vehicle alone” value was “significant nerve damage”.
